According to PMC11025498, “First-in-human Phase I Trial of TPST-1120, an Inhibitor of PPARα, as Monotherapy or in Combination with Nivolumab, in Patients with Advanced Solid Tumors” (Cancer Research Communications, 2024):
Read-outs that look alike come from different tables or passages of the source.

Legend:
[1] = tested on: patients with PD-L1 combined positive score ≤1; set-up: method as in PMID 32359091, PMID 32352498, PMID 35611499, PMID 34907910; details: CCA, KEYNOTE-158; cited from earlier work
[2] = tested on: RCC; experiment: prior regimens of the RCC responders; assay type: in vivo, human; details: prior regimens of person RCC responder
[3] = tested on: patients with RCC; details: nivolumab monotherapy after previous ICI therapy, retrospective, cited from earlier work

pembrolizumab: ICI monotherapy in the KEYNOTE-158 trial
ORR [1]: 2.9%

CO[C@H]1C[C@@H]2CC[C@@H](C)[C@@](O)(O2)C(=O)C(=O)N2CCCC[C@H]2C(=O)O[C@H]([C@H](C)C[C@@H]2CC[C@@H](OCCO)[C@H](OC)C2)CC(=O)[C@H](C)/C=C(\C)[C@@H](O)[C@@H](OC)C(=O)[C@H](C)C[C@H](C)/C=C/C=C/C=C/1C [Everolimus]
Duration [2]: 6.1 mo

COc1cc2nccc(Oc3ccc(NC(=O)C4(C(=O)Nc5ccc(F)cc5)CC4)cc3)c2cc1OC [Cabozantinib]
Duration [2]: 6.3 mo

nivolumab: PD-1 inhibitor
ORR ([3]; ref 33): 16% | ORR ([3]; ref 34): 23%
